Source: US20260159511A1, “SMALL MOLECULE STING ANTAGONISTS” (CURADEV PHARMA PVT. LTD., priority 2021, published 2026)

system: IRF pathway in THP1-Dual™ cells, THP-1 (HAQ); test: Reporter gene expression assay in THP-1 cells (THP1-Dual, IRF pathway Lucia luciferase reporter, 2′,3′-cGAMP stimulation); type: cell-based, human; details: Homo sapiens, read-out: THP-1 (HAQ) Activity (IC50 value range)
Method: Reporter Gene Expression Assay in THP-1 Cells
THP1-Dual™ cells (Invivogen) were derived from the human THP-1 monocyte cell line by stable integration of two inducible reporter constructs. As a result, THP1-Dual™ cells allow the simultaneous study of the IRF pathway, by assessing the activity of a secreted luciferase (Lucia) and the NF-κB pathway, by monitoring the activity of secreted SEAP. 5×10^4 THP1-Dual™ cells were seeded in 384-well plates in growth medium and preincubated with novel compounds for 10 minutes followed by stimulation with 5 μM 2′,3′-cGAMP. After 20 hr of stimulation the supernatant was removed and the IRF pathway reporter protein was readily measured in the cell culture supernatant using QUANTI-Luc™ (Invivogen), a luciferase detection reagent on a Spectramax i3X luminometer.

Compound	IC50
O=C(Nc1ccc2c(c1)N(Cc1ccccc1)C(=O)CS2)Nc1c[nH]c2ccc(-c3ccn[nH]3)cc12 [Example 38, 1-(5-(1H-Pyrazol-5-yl)-1H-indol-3-yl)-3-(4-benzyl-3-oxo-3,4-dihydro-2H-benzo[b][1,4]thiazin-6-yl)urea]	1 to 10 µM

same assay, conditions: Homo sapiens; THP1-Dual cells preincubated with compound 10 minutes, stimulation with 5 μM 2′,3′-cGAMP for 20 hr, QUANTI-Luc readout of the supernatant; read-out: THP-1 (HAQ) Activity (IC50 value range)

IC50	Compound
< 1 µM	N#Cc1ccc2[nH]cc(NC(=O)Nc3ccc4c(c3)N(Cc3ccccc3)C(=O)CS4)c2c1 [Example 37, 1-(4-benzyl-3-oxo-3,4-dihydro-2H-benzo[b][1,4]thiazin-6-yl)-3-(5-cyano-1H-indol-3-yl)urea]
< 1 µM	O=C(Nc1ccc2c(c1)N(Cc1ccccc1)C(=O)CS2)Nc1c[nH]c2ccc(-c3cnco3)cc12 [Example 39, 1-(4-benzyl-3-oxo-3,4-dihydro-2H-benzo[b][1,4]thiazin-6-yl)-3-(5-(oxazol-5-yl)-1H-indol-3-yl)urea]
< 1 µM	O=C(Nc1ccc2c(c1)N(Cc1ccccc1)C(=O)CS2)Nc1c[nH]c2ccc(-c3cc(F)cc(F)c3)cc12 [Example 40, 1-(4-benzyl-3-oxo-3,4-dihydro-2H-benzo[b][1,4]thiazin-6-yl)-3-(5-(3,5-difluorophenyl)-1H-indol-3-yl)urea]
1 to 10 µM	Cc1ncc(-c2ccc3[nH]cc(NC(=O)Nc4ccc5c(c4)N(Cc4ccccc4)C(=O)CS5)c3c2)o1 [Example 41, 1-(4-benzyl-3-oxo-3,4-dihydro-2H-benzo[b][1,4]thiazin-6-yl)-3-(5-(2-methyloxazol-5-yl)-1H-indol-3-yl)urea]
< 1 µM	O=C(Nc1ccc2c(c1)N(Cc1ccccc1)C(=O)CS2)Nc1c[nH]c2ccc(-c3cnsc3)cc12 [Example 42, 1-(4-benzyl-3-oxo-3,4-dihydro-2H-benzo[b][1,4]thiazin-6-yl)-3-(5-(isothiazol-4-yl)-1H-indol-3-yl)urea]
< 1 µM	O=C(Nc1ccc2c(c1)N(Cc1ccccc1)C(=O)CS2)Nc1c[nH]c2ccc(-c3cccc(CO)c3)cc12 [Example 43, 1-(4-benzyl-3-oxo-3,4-dihydro-2H-benzo[b][1,4]thiazin-6-yl)-3-(5-(3-(hydroxymethyl)phenyl)-1H-indol-3-yl)urea]
1 to 10 µM	O=C(Nc1ccc2c(c1)N(Cc1ccccc1)C(=O)CS2)Nc1c[nH]c2ccc(-c3cn[nH]c3)cc12 [Example 44, 1-(5-(1H-pyrazol-4-yl)-1H-indol-3-yl)-3-(4-benzyl-3-oxo-3,4-dihydro-2H-benzo[b][1,4]thiazin-6-yl)urea]
< 1 µM	N#Cc1cccc(-c2ccc3[nH]cc(NC(=O)Nc4ccc5c(c4)N(Cc4ccccc4)C(=O)CS5)c3c2)c1 [Example 45, 1-(4-benzyl-3-oxo-3,4-dihydro-2H-benzo[b][1,4]thiazin-6-yl)-3-(5-(3-cyanophenyl)-1H-indol-3-yl)urea]
1 to 10 µM	O=C(Nc1ccc2c(c1)N(Cc1ccccc1)C(=O)CS2)Nc1c[nH]c2ccc(-c3cnn(CCO)c3)cc12 [Example 46, 1-(4-benzyl-3-oxo-3,4-dihydro-2H-benzo[b][1,4]thiazin-6-yl)-3-(5-(1-(2-hydroxyethyl)-1H-pyrazol-4-yl)-1H-indol-3-yl)urea]
< 1 µM	CCn1cc(-c2ccc3[nH]cc(NC(=O)Nc4ccc5c(c4)N(Cc4ccccc4)C(=O)CS5)c3c2)cn1 [Example 47, 1-(4-benzyl-3-oxo-3,4-dihydro-2H-benzo[b][1,4]thiazin-6-yl)-3-(5-(1-ethyl-1H-pyrazol-4-yl)-1H-indol-3-yl)urea]
1 to 10 µM	NC(=O)c1cccc(-c2ccc3[nH]cc(NC(=O)Nc4ccc5c(c4)N(Cc4ccccc4)C(=O)CS5)c3c2)c1 [Example 48, 3-(3-(3-(4-benzyl-3-oxo-3,4-dihydro-2H-benzo[b][1,4]thiazin-6-yl)ureido)-1H-indol-5-yl)benzamide]
1 to 10 µM	COCCn1cc(-c2ccc3[nH]cc(NC(=O)Nc4ccc5c(c4)N(Cc4ccccc4)C(=O)CS5)c3c2)cn1 [Example 49, 1-(4-benzyl-3-oxo-3,4-dihydro-2H-benzo[b][1,4]thiazin-6-yl)-3-(5-(1-(2-methoxyethyl)-1H-pyrazol-4-yl)-1H-indol-3-yl)urea]
< 1 µM	O=C(Nc1ccc2c(c1)N(Cc1ccccc1)C(=O)CS2)Nc1c[nH]c2ccc(-c3cnn(C(F)F)c3)cc12 [Example 50, 1-(4-benzyl-3-oxo-3,4-dihydro-2H-benzo[b][1,4]thiazin-6-yl)-3-(5-(1-(difluoromethyl)-1H-pyrazol-4-yl)-1H-indol-3-yl)urea]
< 1 µM	O=C(Nc1ccc2c(c1)N(Cc1ccccc1)C(=O)CS2)Nc1c[nH]c2ccc(-c3ccncc3)cc12 [Example 51, 1-(4-benzyl-3-oxo-3,4-dihydro-2H-benzo[b][1,4]thiazin-6-yl)-3-(5-(pyridin-4-yl)-1H-indol-3-yl)urea]
1 to 10 µM	N#CCCn1cc(-c2ccc3[nH]cc(NC(=O)Nc4ccc5c(c4)N(Cc4ccccc4)C(=O)CS5)c3c2)cn1 [Example 52, 1-(4-benzyl-3-oxo-3,4-dihydro-2H-benzo[b][1,4]thiazin-6-yl)-3-(5-(1-(2-cyanoethyl)-1H-pyrazol-4-yl)-1H-indol-3-yl)urea]
< 1 µM	COc1cccc(-c2ccc3[nH]cc(NC(=O)Nc4ccc5c(c4)N(Cc4ccccc4)C(=O)CS5)c3c2)c1 [Example 53, 1-(4-benzyl-3-oxo-3,4-dihydro-2H-benzo[b][1,4]thiazin-6-yl)-3-(5-(3-methoxyphenyl)-1H-indol-3-yl)urea]
1 to 10 µM	CS(=O)(=O)c1cccc(-c2ccc3[nH]cc(NC(=O)Nc4ccc5c(c4)N(Cc4ccccc4)C(=O)CS5)c3c2)c1 [Example 54, 1-(4-benzyl-3-oxo-3,4-dihydro-2H-benzo[b][1,4]thiazin-6-yl)-3-(5-(3-(methylsulfonyl)phenyl)-1H-indol-3-yl)urea]
< 1 µM	O=C(Nc1ccc2c(c1)N(Cc1ccccc1)C(=O)CS2)Nc1c[nH]c2ccc(-c3cccnc3)cc12 [Example 55, 1-(4-benzyl-3-oxo-3,4-dihydro-2H-benzo[b][1,4]thiazin-6-yl)-3-(5-(pyridin-3-yl)-1H-indol-3-yl)urea]
< 1 µM	O=C(Nc1ccc2c(c1)N(Cc1ccccc1)C(=O)CS2)Nc1c[nH]c2ccc(-c3cncnc3)cc12 [Example 56, 1-(4-benzyl-3-oxo-3,4-dihydro-2H-benzo[b][1,4]thiazin-6-yl)-3-(5-(pyrimidin-5-yl)-1H-indol-3-yl)urea]
< 1 µM	O=C(Nc1ccc2c(c1)N(Cc1ccccc1)C(=O)CS2)Nc1c[nH]c2ccc(-c3cncc(Cl)c3)cc12 [Example 57, 1-(4-benzyl-3-oxo-3,4-dihydro-2H-benzo[b][1,4]thiazin-6-yl)-3-(5-(5-chloropyridin-3-yl)-1H-indol-3-yl)urea]
< 1 µM	O=C(Nc1ccc2c(c1)N(Cc1ccccc1)C(=O)CS2)Nc1c[nH]c2ccc(-c3cccc(OC(F)(F)F)c3)cc12 [Example 58, 1-(4-benzyl-3-oxo-3,4-dihydro-2H-benzo[b][1,4]thiazin-6-yl)-3-(5-(3-(trifluoromethoxy)phenyl)-1H-indol-3-yl)urea]
< 1 µM	CC(C)n1cc(-c2ccc3[nH]cc(NC(=O)Nc4ccc5c(c4)N(Cc4ccccc4)C(=O)CS5)c3c2)cn1 [Example 59, 1-(4-benzyl-3-oxo-3,4-dihydro-2H-benzo[b][1,4]thiazin-6-yl)-3-(5-(1-isopropyl-1H-pyrazol-4-yl)-1H-indol-3-yl)urea]
< 1 µM	O=C(Nc1ccc2c(c1)N(Cc1ccccc1)C(=O)CS2)Nc1c[nH]c2ccc(-c3cnn(CC4CC4)c3)cc12 [Example 60, 1-(4-benzyl-3-oxo-3,4-dihydro-2H-benzo[b][1,4]thiazin-6-yl)-3-(5-(1-(cyclopropylmethyl)-1H-pyrazol-4-yl)-1H-indol-3-yl)urea]
1 to 10 µM	O=C(Nc1ccc2c(c1)N(Cc1ccccc1)C(=O)CS2)Nc1c[nH]c2ccc(-c3cncc(CO)c3)cc12 [Example 61, 1-(4-benzyl-3-oxo-3,4-dihydro-2H-benzo[b][1,4]thiazin-6-yl)-3-(5-(5-(hydroxymethyl)pyridin-3-yl)-1H-indol-3-yl)urea]
< 1 µM	O=C1Cc2ccc(-c3ccc4[nH]cc(NC(=O)Nc5ccc6c(c5)N(Cc5ccccc5)C(=O)CS6)c4c3)cc2N1 [Example 62, 1-(4-benzyl-3-oxo-3,4-dihydro-2H-benzo[b][1,4]thiazin-6-yl)-3-(5-(2-oxoindolin-6-yl)-1H-indol-3-yl)urea]
1 to 10 µM	O=C(Nc1ccc2c(c1)N(Cc1ccccc1)C(=O)CS2)Nc1c[nH]c2ccc(-c3ccc(O)nc3)cc12 [Example 63, 1-(4-benzyl-3-oxo-3,4-dihydro-2H-benzo[b][1,4]thiazin-6-yl)-3-(5-(6-hydroxypyridin-3-yl)-1H-indol-3-yl)urea]
< 1 µM	O=C(Nc1ccc2c(c1)N(Cc1ccccc1)C(=O)CS2)Nc1c[nH]c2ccc(-c3cncs3)cc12 [Example 64, 1-(4-benzyl-3-oxo-3,4-dihydro-2H-benzo[b][1,4]thiazin-6-yl)-3-(5-(thiazol-5-yl)-1H-indol-3-yl)urea]

same assay, conditions: THP1-Dual cells preincubated with compound 10 minutes, stimulation with 5 μM 2′,3′-cGAMP for 20 hr, QUANTI-Luc readout of the supernatant; read-out: THP-1 (HAQ) Activity (IC50 value range)

IC50	Compound
< 1 µM	CC1Sc2ccc(NC(=O)Nc3c[nH]c4ccccc34)cc2N(Cc2ccccc2)C1=O (stereo not drawn) [Example 35, 1-(4-benzyl-2-methyl-3-oxo-3,4-dihydro-2H-benzo[b][1,4]thiazin-6-yl)-3-(1H-indol-3-yl)urea]
< 1 µM	CC1Sc2ccc(NC(=O)Nc3c[nH]c4ccccc34)cc2N(Cc2ccccc2)C1=O (stereo not drawn) [Example 36, 1-(4-benzyl-2-methyl-3-oxo-3,4-dihydro-2H-benzo[b][1,4]thiazin-6-yl)-3-(1H-indol-3-yl)urea]
